Test results from the NIST ThermoML archive (doi:10.1016/j.jct.2005.04.006).
Numbers after ± are expanded uncertainties.

Tests used:
[1] = Liquid; for mass density: 298.15 K, 101.33 kPa
[2] = refractive index (Na D-line) (dimensionless); conditions: 298.15 K; 101.33 kPa; Liquid

In the case of `Cc1ccc(C)cc1` [1,4-dimethylbenzene], the mass density [1] is reported as 856.6 ± 2.1 kg/m3, the “vapor or sublimation pressure” value ([1]; 409.35 K) is reported as 95.8 ± 5 kPa and the refractive index [2] is reported as 1.4933 ± 0.0016.
For `CC(C)(C)O` [2-methylpropan-2-ol], the mass density [1] was 781.2 ± 1.8 kg/m3, the “vapor or sublimation pressure” value ([1]; 354.15 K) was 95.8 ± 5 kPa and the refractive index [2] was 1.3852 ± 0.0016.
With `Clc1ccccc1` [chlorobenzene] the mass density [1] was 1100.9 ± 2.9 kg/m3, the “vapor or sublimation pressure” value ([1]; 402.95 K) was 95.8 ± 5 kPa and the refractive index [2] was 1.5219 ± 0.0016.
With `CC(C)CC(C)(C)C` [2,2,4-trimethylpentane] the mass density [1] was 687.8 ± 1.5 kg/m3, the “vapor or sublimation pressure” value ([1]; 370.55 K) was 95.8 ± 5 kPa and the refractive index [2] was 1.3889 ± 0.0016.
With `CCCCCC` [hexane] the mass density [1] was 654.8 ± 1.4 kg/m3, the “vapor or sublimation pressure” value ([1]; 340.25 K) was 95.8 ± 5 kPa and the refractive index [2] was 1.3723 ± 0.0016.
In the case of `Cc1cccc(C)c1` [1,3-dimethylbenzene], the mass density [1] is reported as 860.1 ± 2.1 kg/m3, the “vapor or sublimation pressure” value ([1]; 409.35 K) is reported as 95.8 ± 5 kPa and the refractive index [2] is reported as 1.4946 ± 0.0016.
In the case of `CCO` [ethanol], the mass density [1] is reported as 784.9 ± 1.8 kg/m3, the “vapor or sublimation pressure” value ([1]; 350.05 K) is reported as 95.8 ± 5 kPa and the refractive index [2] is reported as 1.3594 ± 0.0016.
